Source: patent US20130217702A1 (Richter Gedeon Nyrt., priority 2010, published 2013)
Structures can show the parent of a compound that is named as a salt.

What was measured:
[1] = target: T1, human recombinant bradykinin B1 receptor (Homo sapiens, UniProt P46663); test: Human recombinant bradykinin B1 receptor competitive radioligand binding; details: hB1 expressed in CHO cells, [3H]-[Des-Arg10] Kallidin radioligand; read-out: B1 binding
T1 construct: host or cells: CHO cells, clone hB1-A5
T1 sequence (P46663 1-353): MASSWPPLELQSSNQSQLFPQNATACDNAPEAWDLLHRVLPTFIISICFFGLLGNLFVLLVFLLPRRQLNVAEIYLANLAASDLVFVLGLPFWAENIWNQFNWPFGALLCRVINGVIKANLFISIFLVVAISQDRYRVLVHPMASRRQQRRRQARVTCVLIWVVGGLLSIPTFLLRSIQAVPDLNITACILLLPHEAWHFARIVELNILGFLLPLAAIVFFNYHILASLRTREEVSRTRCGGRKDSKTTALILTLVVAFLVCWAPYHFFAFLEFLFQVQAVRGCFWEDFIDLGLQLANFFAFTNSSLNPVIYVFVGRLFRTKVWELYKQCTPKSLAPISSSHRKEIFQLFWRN
Procedure: Assessment of Ligand Binding Affinity to B1 and B2 Receptors In Vitro by Competitive Radioligand Binding Assay
Binding assays were carried out on human recombinant bradykinin) receptors (expressed in CHO cells, hB1-A5) according to the Euroscreen Technical Data Sheet (Cat.No.:ES-091). 20 μg protein/tube was incubated with [3,4-prolyl-3,4-^3H(N)]-[Des-Arg^10] Kallidin as radioligand. Non specific binding was determined in the presence of 10 μM Lys-des-Arg^9-Bradykinin. The final incubation volume was 250 μl. Samples were incubated for 15 min. at 25° C. then were rapidly vacuum filtered through GF/B filters presoaked for at least 1 h in 0.5% PEI. Radioactivity was determined by liquid scintillation spectroscopy.
The ligand displacement by the compounds was determined using a minimum of seven concentrations in triplicate, and experiments were repeated at least two times. The specific radioligand binding is defined as the difference between total binding and the non-specific binding determined in the presence of an excess of unlabelled ligand. Results are expressed as a percent inhibition of specific binding obtained in the presence of RGH-478 or reference drugs. IC50 values (i.e. concentration of compound giving 50% inhibition of specific binding) were calculated from concentration-displacement curves by sigmoidal fitting using GraphPad Prism Software 4.0. Ki values (i.e. inhibition constants) were calculated using the Cheng-Prusoff equation. KD was determined from the Scatchard plot. (Editor-in-chief: Enna, S. J. and Williams, M. Current protocols in pharmacology vol. 1. John Wiley & sons Inc., 1998)

[2] = target: T2, recombinant human B1 receptors (Homo sapiens, UniProt P46663); test: Functional assay: antagonist potency by cytosolic calcium measurement (plate reader fluorimeter) in CHO-B1 cells, agonist LysDABK; type: cell-based; details: CHO-B1 cells, inhibition of LysDABK (EC80)-evoked [Ca2+]i elevation; read-out: B1 func.
T2 construct: host or cells: CHO (CHO-B1)
T2 sequence (P46663 1-353): T1 sequence (P46663 1-353)
Procedure: Assessment of Antagonist Potency at B1 Receptors In Vitro by Measurement of Cytosolic Calcium Ion Concentration with a Plate Reader Fluorimeter in Cells Expressing Recombinant Human B1 Receptors
Chinese hamster ovary (CHO) cells stably expressing recombinant human B1 (CHO-B1, Euroscreen) receptors were cultured in Dulbecco's Modified Eagle's Medium (DMEM) containing 10% Fetal Calf Serum (FCS), 100 U/ml penicillin, 0.1 mg/ml streptomycin, 0.25 μg/ml amphotericin B, 1% Minimum Essential Medium Eagle (MEM), non essential amino acid solution, 600 μg/ml G418. Cells were kept at 37° C. in a humidified incubator in an atmosphere of 5% CO2/95% air and were passaged 1:4 three times a week. Cells were plated at 1.5−2.5×10^4 cell/well on standard 96-well microplates, measurements of cytosolic calcium ion concentration ([Ca^2+]i) were carried out 1-2 days after cell plating.
Measurements of [Ca^2+]i were carried out on CHO-B1 cells stably expressing human B1 receptors, respectively. Cells were grown in standard 96-well microplates and before the measurement were loaded with a fluorescent Ca^2+-sensitive dye, fluo-4/AM (2 μM): after removing the culture medium the dye was added to the cells (dissolved in assay buffer: 145 mM NaCl, 5 mM KCl, 2 mM MgCl2, 2 mM CaCl2, 10 mM HEPES, 20 mM D-glucose, 2 mM probenecid, 100 μl/well) and cells were incubated at 37° C. in a humidified incubator in an atmosphere of 5% CO2/95% air for 40-120 min. To stop dye loading cells were washed twice with assay buffer. After washing, various concentrations of the test compounds (diluted in extracellular medium from a DMSO stock solution, final DMSO concentration was <0.1%) or buffer were added to each well depending on the experimental setup. After incubation at 37° C. for 20-25 min. baseline and agonist-evoked changes of [Ca^2+]; were measured column by column with a plate reader fluorimeter (Fluoroskan Ascent, Labsystems). Excitation and detection of emission was carried out from the bottom of the plate. Filters used for Fluo-4: excitation filter 485 nm, emission filter 538 nm. The whole measurement process was performed at 37° C. and was controlled by custom software. Inhibitory potency of the test compounds was assessed by measuring the reduction in the agonist-evoked [Ca^2+]i-elevation in the presence of different concentrations of the compounds. The agonist was LysDABK for CHO-B1 cells. Agonist was applied at an EC80 concentration; the EC80-values were derived from daily determined dose-response curves. Fluorescence data were expressed as ΔF/F (fluorescence change normalized to baseline). All treatments on a single plate were measured in multiple wells. Data from all wells with the same treatment were averaged and the average values were used for analysis. Inhibitory potency of a compound at a single concentration point was expressed as percent inhibition of the control agonist response. Sigmoidal concentration-inhibition curves were fitted to the data (derived from at least three independent experiments) and IC50-values were determined as the concentration that produces half of the maximal inhibition caused by the compound.

SMILES | Ki [1] [nM] | IC50 [2] [nM]
COc1cc(C(=O)NC2(C(=O)NCc3ccc(-n4c(-c5noc(C)n5)cc5ccccc54)cc3)CC2)on1 [Example 195, 3-Methoxy-isoxazole-5-carboxylic acid (1-{4-[2-(5-methyl-[1,2,4]oxadiazol-3-yl)-indol-1-yl]-benzylcarbamoyl}-cyclopropyl)-amide] | < 20 | < 20
Cc1nnc(-c2c(Cl)c3ccccc3n2-c2ccc(CNC(=O)C3(NC(=O)CC(F)(F)F)CC3)cc2)o1 [Example 183, 1-(3,3,3-Trifluoro-propionylamino)-cyclopropanecarboxylic acid 4-[3-chloro-2-(5-methyl-[1,3,4]oxadiazol-2-yl)-indol-1-yl]-benzylamide] | 20 to 100 | 20 to 100
Cc1nc(-c2c(Cl)c3ccccc3n2-c2ccc(CNC(=O)C3(NC(=O)c4cc(C)n(C)n4)CC3)cc2)no1 [Example 148, 1,5-Dimethyl-1H-pyrazole-3-carboxylic acid (1-{4-[3-chloro-2-(5-methyl-[1,2,4]oxadiazol-3-yl)-indol-1-yl]-benzylcarbamoyl}-cyclopropyl)-amide] | < 20 | 20 to 100
Cn1nnc(-c2c(Cl)c3ccccc3n2-c2ccc(CNC(=O)C3(NC(=O)c4cccnc4F)CC3)cc2)n1 [Example 119, N-(1-{4-[3-Chloro-2-(2-methyl-2H-tetrazol-5-yl)-indol-1-yl]-benzylcarbamoyl}-cyclopropyl)-2-fluoro-nicotinamide] | < 20 | < 20
Cc1cnc(C(=O)NC2(C(=O)NCc3ccc(-n4c(-c5noc(C)n5)cc5cc(F)ccc54)cc3F)CC2)cn1 [Example 131, 5-Methyl-pyrazine-2-carboxylic acid (1-{2-fluoro-4-[5-fluoro-2-(5-methyl-[1,2,4]oxadiazol-3-yl)-indol-1-yl]-benzylcarbamoyl}-cyclopropyl)-amide] | < 20 | 20 to 100
Cc1nc(-c2c(Cl)c3ccccc3n2-c2ccc(CNC(=O)C3(NC(=O)c4cccc(I)c4)CC3)cc2)no1 [Example 176, N-(1-{4-[3-Chloro-2-(5-methyl-[1,2,4]oxadiazol-3-yl)-indol-1-yl]-benzylcarbamoyl}-cyclopropyl)-3-iodo-benzamide] | 20 to 100 | 20 to 100
Cc1nc(-c2c(Cl)c3ccccc3n2-c2ccc(CNC(=O)C3(NC(=O)c4ccc(C#N)cc4)CC3)cc2)no1 [Example 170, N-(1-{4-[3-Chloro-2-(5-methyl-[1,2,4]oxadiazol-3-yl)-indol-1-yl]-benzylcarbamoyl}-cyclopropyl)-4-cyano-benzamide] | < 20 | 20 to 100
Cc1nc(-c2c(Cl)c3ccccc3n2-c2ccc(CNC(=O)C3(NC(=O)CCC(C)C)CC3)cc2)no1 [Example 140, 1-(4-Methyl-pentanoylamino)-cyclopropanecarboxylic acid 4-[3-chloro-2-(5-methyl-[1,2,4]oxadiazol-3-yl)-indol-1-yl]-benzylamide] | < 20 | < 20
Cc1nc(-c2c(Cl)c3ccccc3n2-c2ccc(CNC(=O)C3(NC(=O)c4cccc(N)c4)CC3)cc2)no1 [Example 186, 3-Amino-N-(1-{4-[3-chloro-2-(5-methyl-[1,2,4]oxadiazol-3-yl)-indol-1-yl]-benzylcarbamoyl}-cyclopropyl)-benzamide hydrochloride] | < 20 | < 20
Cc1nc(-c2cc3cc(Cl)ccc3n2-c2ccc(CNC(=O)C3(NC(=O)CC(F)(F)F)CC3)cc2)no1 [Example 127, 1-(3,3,3-Trifluoro-propionylamino)-cyclopropanecarboxylic acid 4-[5-chloro-2-(5-methyl-[1,2,4]oxadiazol-3-yl)-indol-1-yl]-benzylamide] | < 20 | < 20
Cc1nc(-c2c(Cl)c3ccccc3n2-c2ccc(CNC(=O)C3(NC(=O)c4cccc(F)c4)CC3)cc2)no1 [Example 178, N-(1-{4-[3-Chloro-2-(5-methyl-[1,2,4]oxadiazol-3-yl)-indol-1-yl]-benzylcarbamoyl}-cyclopropyl)-3-fluoro-benzamide] | < 20 | < 20
COc1cc(C(=O)NC2(C(=O)NCc3ccc(-n4c(-c5nc(C)no5)c(Cl)c5ccccc54)cc3)CC2)on1 [Example 193, 3-Methoxy-isoxazole-5-carboxylic acid (1-{4-[3-chloro-2-(3-methyl-[1,2,4]oxadiazol-5-yl)-indol-1-yl]-benzylcarbamoyl}-cyclopropyl)-amide] | < 20 | < 20
COc1ccc2c(c1)c(Cl)c(-c1nc(C)no1)n2-c1ccc(CNC(=O)C2(NC(=O)c3cncc(C(F)(F)F)c3)CC2)cc1 [Example 50, N-(1-{4-[3-Chloro-5-methoxy-2-(3-methyl-[1,2,4]oxadiazol-5-yl)-indol-1-yl]-benzyl-carbamoyl}-cyclopropyl)-5-trifluoromethyl-nicotinamide] | < 20 | < 20
COc1ccc2c(c1)cc(-c1nc(C)no1)n2-c1ccc(CNC(=O)C2(NC(=O)CC(F)(F)F)CC2)cc1 [Example 78, 1-(3,3,3-Trifluoro-propionylamino)-cyclopropanecarboxylic acid 4-[5-methoxy-2-(3-methyl-[1,2,4]oxadiazol-5-yl)-indol-1-yl]-benzylamide] | < 20 | < 20
Cc1ccc(C(=O)NC2(C(=O)NCc3ccc(-n4c(-c5noc(C)n5)c(Cl)c5ccccc54)cc3)CC2)c(Cl)n1 [Example 156, 2-Chloro-N-(1-{4-[3-chloro-2-(5-methyl-[1,2,4]oxadiazol-3-yl)-indol-1-yl]-benzylcarbamoyl}-cyclopropyl)-6-methyl-nicotinamide] | < 20 | < 20
Cn1nnc(-c2cc3ccccc3n2-c2ccc(CNC(=O)C3(NC(=O)C(F)(F)F)CC3)cc2)n1 [Example 36, 1-(2,2,2-Trifluoro-acetylamino)-cyclopropanecarboxylic acid 4-[2-(2-methyl-2H-tetrazol-5-yl)-indol-1-yl]-benzylamide] | < 20 | < 20
Cc1nc(-c2cc3ccccc3n2-c2ccc(CNC(=O)C3(NC(=O)CC(F)(F)F)CC3)cc2)no1 [Example 81, 1-(3,3,3-Trifluoro-propionylamino)-cyclopropanecarboxylic acid 4-[2-(5-methyl-[1,2,4]oxadiazol-3-yl)-indol-1-yl]-benzylamide] | < 20 | < 20
